This note sets out measurements from patent US10953015B2, “Use of adenosine receptor signaling to regulate P-gp function” (CORNELL UNIVERSITY, priority 2016, dated 2021).

Molecules are shown by their SMILES.

For experiment [1], the system named is P-gp. In words: Microscopic (IFA) analysis of Rho123 uptake in primary human brain endothelial cells. The format is cell-based. As to conditions: 2.5 μM Rho123, 1 μM agonist, 15 minutes to 24 hours. As to the method: Human brain endothelial cells and primary brain endothelial cells were plated onto 48-well plates until 100% confluence was reached, and media were replaced with fresh media containing Rho123 (2.5 μM) with different concentrations of Lexiscan®, NECA, or PSC833. Reaction was halted by adding 250 μl of ice-cold PBS. Plate was washed with 250 μl of ice-cold PBS 3 times and lysed with lysis buffer. Each sample was analyzed using Synergy Fluometer (Biotek), with excitation at 488 nm and emission at 523 nm. Concentration of Rho123 was analyzed using standard curve created by serial dilution of Rho123. Final concentration of Rho123 was normalized using protein concentration of lysate measured using Bradford assay (Bio-Rad). For microscopic analysis of Rho123 uptake, cells were cultured on coverslip and Rho123 was treated with or without Lexiscan® or NECA with DMSO as control. Reaction was terminated by adding ice-cold PBS and washed with ice-cold PBS 3 times. Cells were fixed with PFA and costained with anti-human P-gp. Cells were visualized with a Zeiss fluorescent microscope and captured with axiovision software. FIG. 4G is a schematic illustration of the Rho123 uptake assay.

For experiment [2], the system named is BCRP1/ABCG2. Put plainly: BCRP1 expression in brain of WT mice (western blot). In kind it is in vivo, mouse.
In experiment [3] the test system is P-gp. In words: Western blot of P-gp expression in HCMEC-D3 cells. Particulars: 1 μM, up to 72 hours. The format is cell-based, human. As to the method: HCMEC-D3 and HBMVEC cells were plated in 12-well plates and were grown until they reached 100% confluency. The media was replaced with fresh media containing 1 μM of Lexiscan® or NECA with proper vehicle control (DMSO) for up to 72 hours. Cells were lysed by lysis buffer […] containing protease inhibitor cocktail and stored for later use (−70° C.). For cytoskeletal fraction analysis, cells were lysed in CSK buffer (100 mM NaCl, 300 mM sucrose, 3 mM MgCl2, 10 mM PIPES, pH 6.8). For brain samples, half of the brain was homogenized and lysed with […] lysis buffer and centrifuged at 17,000 g for 20 minutes and 1:10 diluted samples were used for analysis. Sample was loaded on 7% SDS PAGE at 100 V for 1 hour and transferred to the nitrocellulose paper. It was blocked with 1% BSA and incubated with anti-P-gp antibody (Genetex, 1:2000) overnight. Subsequently, it was washed with TBST and incubated with anti-rabbit secondary antibody (1:2000) for 1 hour. It was washed with TBST and developed with ECL substrate and exposed to x-ray film. Anti-GAPDH or −β-actin antibody was used as loading control. The intensity of band was analyzed with densitometric analysis and plotted as a graph for analysis of time-course effect of AR signaling on P-gp expression.

For experiment [4], the system named is P-gp. In words: Western blot of P-gp expression in MCF7 breast cancer cells. As to conditions: 1 μM, 24, 48, 72 hours. The format is cell-based, human. How it is done:
MCF7 cells (human breast cancer cell line) were cultured in 24 well plates until they reached confluency. FIGS. 17A-17C are images of western blots of cells treated with vehicle control (i.e., DMSO) (“D”) or 1 μM of the broad spectrum AR agonist NECA (“N”) (FIG. 17A), 1 μM of the A2A AR agonist Lexiscan® (“L”) (FIG. 17B), or 1 μM of the A2B AR agonist BAY60 (“B”) (FIG. 17C), respectively for 24, 48, 72 hours. Cells were lysed with lysis buffer and expression levels of P-gp, MMP9, or VEGF analyzed by western blot. GAPDH was used as loading a control. FIG. 17D is a graph of experimental results showing that Lexiscan® down-regulates P-gp expression in MCF7 breast cancer cells. MCF7 breast cancer cells were treated with Lex (0.25 μM) concomitant with Rhodamine 123 (“Rho123”). […] Students T test, P<0.001. […] FIG. 17E is a fluorescence microscopy image showing MCF7 breast cancer cells grown on coverslips and treated with vehicle (DMSO, control), or A2 AR agonists, Lexiscan® (1 μM) or A1193 (1 μM) for 15 minutes in the presence of epirubicin. Cells were stained with an antibody to P-gp and mounted with DAPI. FIG. 17F is a graph of the fluorescent intensity quantified from FIG. 17E by measuring the mean fluorescent intensity (“MFI”) of epirubicin (pink) that is present in cell nuclei. ***=P<0.0001.

For the compound `CCNC(=O)[C@H]1O[C@@H](n2cnc3c(N)ncnc32)[C@H](O)[C@@H]1O` [NECA, (2S,3S,4R,5R)-5-(6-aminopurin-9-yl)-N-ethyl-3,4-dihydroxyoxolane-2-carboxamide], the “Rho123 accumulation visualized by IFA” value in experiment [1] was “increased Rho123 accumulation at later time points, beginning at 4 hours; this was maintained for up to 24 hours”. Also, the “BCRP expression level in brain” value in experiment [2] (2 and 18 hours after NECA) is recorded as “not significantly affected”. Moreover, the “P-gp expression (western blot, vs DMSO control)” value in experiment [3] was “decreased P-gp expression for up to 4 hours”. In addition, in experiment [4], the “P-gp expression (western blot)” value was “decreased P-gp expression in cultured MCF7 cells at 48 and 72 hour time points”.

In the case of `CNC(=O)c1cnn(-c2nc(N)c3ncn([C@@H]4O[C@H](CO)[C@@H](O)[C@H]4O)c3n2)c1` [Lexiscan®, 1-[6-amino-9-[(2R,3R,4S,5R)-3,4-dihydroxy-5-(hydroxymethyl)oxolan-2-yl]purin-2-yl]-N-methylpyrazole-4-carboxamide], the “Rho123 accumulation visualized by IFA” value in experiment [1] is “increased the accumulation of Rho123 beginning at 15 minutes to 1 hour”. Further, the “Time at which effect on BCRP occurred” value in experiment [2] stood at 15 min. For the same compound, the “BCRP expression in brain” value in experiment [2] (Lexiscan® treatment, 5 to 60 minutes) was “potently down-regulated BCRP expression by 15 minutes, after which its expression began to recover by 60 minutes”. The “P-gp expression (western blot, vs DMSO control)” value in experiment [3] was “rapid decrease in P-gp expression beginning at 30 minutes, which was maintained for up to 1 hour”. Further, in experiment [4], the “P-gp expression (western blot)” value is “decreased P-gp expression in cultured MCF7 cells at 48 and 72 hour time points”.
